Laboratory results reported in patent US11419843B2, “Small molecule BCL-2 functional converters as cancer therapeutics” (Oregon State University, priority 2016, dated 2022).

Experiments:
[1] = tested on: H460 parental and resistant cells; assay: Colony formation (2D clonogenic, 3D soft agar) of H460 parental and resistant cells; format: cell-based, human; settings: treated continuously for 14 days
From the text: Colony forming ability (%) relative to vehicle treatment. Representative of three independent conducted assays in triplicate.

[2] = tested on: MEF Bcl-2−/− and WT MEF cells; assay: Colony forming ability of MEFs; format: cell-based, mouse; settings: 10 μM, 10% FBS, 48 h
Bcl-2 loop domain = Bcl-2 loop domain (Homo sapiens, UniProt P10415); assay: NMR titration of 15N-13C labeled Bcl-2 loop domain (HSQC chemical shift perturbation); settings: for Kd: 0.2 mM Bcl-2 loop titrated with 0.2-5.4 mM MTX
[3] = biological target: T1, Nur77 interaction with Bcl-2 (Homo sapiens, UniProt P10415); assay: Co-immunoprecipitation, competition with Nur77 for Bcl-2; format: binding; settings: 10 μM MTX, 16 h, HEK293T cells
T1 construct: expressed in transfected cells; host or cells: HEK293T
Protocol: Methotrexate reduced the interaction of Nur-77 with BCl-2 domain upon co-incubation indicating methotrexate interacts with the same region of loop domain as does Nur-77.
For CoIP experiments, HEK293T cells were plated in a 6 well plate and transfected with indicated expression plasmids by lipofectamine. The total amount of DNA was maintained at 2.5 μg. After 12 h of transfection, cells were treated with DMSO or 10 μM MTX for 16 h. The cells were then lysed on ice using RIPA buffer with freshly added protease inhibitor cocktail (Complete, mini, EDTA-free protease inhibitor cocktail, Roche, Inc.). The lysis buffer contained either DMSO or 10 μM MTX. Cell lysates were incubated on ice for 30 min and then spun at 14,000 rpm for 30 min at 4° C. Cleared lysates were incubated with Bcl-2 antibody (sc-509, Santacruz) and incubated at 4° C. for 2-4 h end-over-end mixing. After incubation a volume of sepharose beads (sc-2003, Santacruz) were added to each sample and left end-over-end mixing overnight at 4° C. The beads were then washed four times with RIPA buffer containing either DMSO or 10 μM and then solubilized in laemmli buffer. Proteins were analyzed on 10-12% SDS-PAGE and immunoblotted with mouse polyclonal anti-Bcl-2 (sc-509, Santacruz), mouse polyclonal anti-GFP (33-2600, Thermofisher).

Chain of Bcl-2 loop domain (P10415 29-90 limits assumed): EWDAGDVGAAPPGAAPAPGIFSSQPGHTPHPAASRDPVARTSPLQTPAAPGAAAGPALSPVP
T1 sequence (P10415 whole entry): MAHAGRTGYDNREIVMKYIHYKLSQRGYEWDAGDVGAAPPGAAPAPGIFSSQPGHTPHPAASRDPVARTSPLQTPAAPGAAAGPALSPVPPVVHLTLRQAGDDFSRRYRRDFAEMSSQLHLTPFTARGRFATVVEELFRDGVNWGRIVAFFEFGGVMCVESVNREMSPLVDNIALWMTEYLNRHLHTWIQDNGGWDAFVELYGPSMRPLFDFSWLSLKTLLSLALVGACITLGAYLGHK

| SMILES | Colony formation ability of H460 resistant vs parental line [1] | Colony forming ability of MEF Bcl-2−/− cells [2] | Colony forming ability of WT MEFs [2] | Chemical shift perturbations of Bcl-2 loop domain upon titration (Bcl-2 loop domain; 15N-1H HSQC) | Hill coefficient, His55 (Bcl-2 loop domain; Hill model fit) | Hill coefficient, His58 (Bcl-2 loop domain; Hill model fit) | Kd (Bcl-2 loop domain; Kd from chemical shift perturbation of His55, Hill model fit) | Kd (Bcl-2 loop domain; Kd from chemical shift perturbation of His58, Hill model fit) | Competition with Nur77 for interaction with Bcl-2 [3] |
| --- | --- | --- | --- | --- | --- | --- | --- | --- | --- |
| CCOc1ccccc1NC(=O)c1cc(Cl)ccc1NC(=O)c1ccc(OC)cc1 [BFC1108, 5-chloro-N-(2-ethoxyphenyl)-2-[(4-methoxybenzoyl)amino]-benzamide] | reduced colony formation ability of resistant line preferentially | absent | fewer colonies |  |  |  |  |  |  |
| CN(Cc1cnc2nc(N)nc(N)c2n1)c1ccc(C(=O)N[C@@H](CCC(=O)O)C(=O)O)cc1 [MTX, (2S)-2-[[4-[(2,4 diaminopteridin-6-yl)methylmethylamino]benzoyl]amino] pentanedioc acid] |  |  |  | residues 55-60 | 1.2 | 1.0 | 5.1 mM | 11.4 mM | competition between MTX and Nur77 in interacting with the Bcl-2 protein could be seen |
